For one data set, the system named is NCI-H441. As to the kind of experiment: Antiproliferative activity against human NCI-H441 cells assessed as reduction in cell viability. The class given is functional, cell-based.
Another data set concerns NCI-H1975. As to the kind of experiment: Antiproliferative activity against human NCI-H1975 cells assessed as reduction in cell viability. The class given is functional, cell-based.
For data set [1], the system named is A549. As to the kind of experiment: Antiproliferative activity against human A549 cells assessed as reduction in cell viability. Format: functional, cell-based.
The subject of the next data set is NCI-H1650. As to the kind of experiment: Antiproliferative activity against human NCI-H1650 cells assessed as reduction in cell viability. Format: functional, cell-based.
In data set [2] the target is T1, Vascular endothelial growth factor receptor 2 (Homo sapiens, UniProt P35968). Put plainly: Inhibition of VEGFR2 (unknown origin) incubated for 1 hr in presence of ATP by ELISA method. (ELISA stands for enzyme-linked immunosorbent assay.)
T1 sequence (P35968 whole entry): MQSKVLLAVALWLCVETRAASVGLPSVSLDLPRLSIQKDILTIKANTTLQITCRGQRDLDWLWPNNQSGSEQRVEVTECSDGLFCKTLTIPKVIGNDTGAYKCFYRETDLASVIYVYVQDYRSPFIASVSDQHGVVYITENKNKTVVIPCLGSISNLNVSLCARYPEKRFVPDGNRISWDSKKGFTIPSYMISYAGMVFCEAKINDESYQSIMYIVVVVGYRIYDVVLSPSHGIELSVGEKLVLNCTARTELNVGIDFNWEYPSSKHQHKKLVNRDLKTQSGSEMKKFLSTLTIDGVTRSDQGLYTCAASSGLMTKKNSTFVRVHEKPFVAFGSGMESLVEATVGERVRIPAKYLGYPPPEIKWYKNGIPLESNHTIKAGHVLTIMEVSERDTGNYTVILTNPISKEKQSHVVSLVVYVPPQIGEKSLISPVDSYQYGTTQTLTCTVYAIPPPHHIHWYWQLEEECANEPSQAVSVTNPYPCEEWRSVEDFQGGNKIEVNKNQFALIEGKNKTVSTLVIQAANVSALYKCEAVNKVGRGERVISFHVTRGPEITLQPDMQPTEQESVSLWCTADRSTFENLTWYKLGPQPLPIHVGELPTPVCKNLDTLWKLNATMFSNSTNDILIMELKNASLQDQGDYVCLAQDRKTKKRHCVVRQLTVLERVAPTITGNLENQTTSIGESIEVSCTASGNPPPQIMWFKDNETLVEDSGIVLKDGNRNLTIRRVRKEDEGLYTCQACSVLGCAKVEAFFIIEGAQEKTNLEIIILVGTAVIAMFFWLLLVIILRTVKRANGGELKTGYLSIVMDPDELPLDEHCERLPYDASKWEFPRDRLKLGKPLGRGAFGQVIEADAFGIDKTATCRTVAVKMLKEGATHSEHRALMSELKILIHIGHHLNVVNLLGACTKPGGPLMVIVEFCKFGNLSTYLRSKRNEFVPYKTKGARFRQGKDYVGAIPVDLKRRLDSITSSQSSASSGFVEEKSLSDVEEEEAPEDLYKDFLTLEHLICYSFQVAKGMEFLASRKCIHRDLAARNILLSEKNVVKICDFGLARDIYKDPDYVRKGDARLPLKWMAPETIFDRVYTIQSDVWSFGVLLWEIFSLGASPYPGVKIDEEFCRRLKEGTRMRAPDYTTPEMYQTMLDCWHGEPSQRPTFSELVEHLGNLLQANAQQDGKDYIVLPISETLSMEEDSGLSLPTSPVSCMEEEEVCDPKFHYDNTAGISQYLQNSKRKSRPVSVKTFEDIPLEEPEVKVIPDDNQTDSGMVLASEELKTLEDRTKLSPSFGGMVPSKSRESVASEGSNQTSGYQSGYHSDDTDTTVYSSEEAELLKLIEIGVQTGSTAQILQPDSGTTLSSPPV
In another data set the test system is A498. As to the kind of experiment: Cytotoxicity against human A498 cells assessed as reduction in cell viability incubated for 48 hrs by MTT assay. The settings on record: A498, 48 h. Format: functional, cell-based. In general terms: Tetrazolium assays rely on reduction of a dye to a coloured formazan, in cell work by metabolically active cells.
The next data set deals with CAKI-1. Put plainly: Cytotoxicity against human CAKI-1 cells assessed as reduction in cell growth incubated for 48 hrs by MTT assay. The class given is functional, cell-based. The note with it: CAKI-1, 48 h.
The subject of data set [3] is HepG2. Put plainly: Antiproliferative activity against human HepG2 cells assessed as reduction in cell viability incubated for 24 hrs by MTT assay. The class given is functional, cell-based. The note with it: HepG2, 24 h.
Data set [4] has as its system MCF7. Put plainly: Antiproliferative activity against human MCF7 cells assessed as reduction in cell viability incubated for 24 hrs by MTT assay. Format: functional, cell-based. The settings on record: MCF7, 24 h.
For data set [5], the system named is PC-3. As to the kind of experiment: Antiproliferative activity against human PC-3 cells assessed as reduction in cell viability incubated for 24 hrs by MTT assay. Format: functional, cell-based. The settings on record: PC-3, 24 h.
Data set [6] concerns the target T1, Vascular endothelial growth factor receptor 2. As to the kind of experiment: Inhibition of human recombinant VEGFR2 using biotinylated poly-GluTyr (4:1) as susbtrate measured for 1 hr by ELISA method.
In data set [7] the test system is MCF7. Put plainly: Cytotoxicity against human MCF7 cells assessed as reduction in cell viability measured after 72 hrs by MTT assay. The note with it: MCF7, 72 h. Format: functional, cell-based.
Data set [8] is described as follows: Cytotoxicity against African green monkey Vero cells assessed as inhibition of cell growth incubated for 24 hrs by MTT assay. The class given is toxicity, cell-based, Chlorocebus sabaeus.
Data set [9] relates to HCT-116. As to the kind of experiment: Cytotoxicity against human HCT-116 cells assessed as reduction in cell viability measured after 72 hrs by MTT assay. The class given is functional, cell-based. The settings on record: HCT-116, 72 h.
Data set [10] relates to HepG2. As to the kind of experiment: Cytotoxicity against human HepG2 cells assessed as reduction in cell viability measured after 72 hrs by MTT assay. The settings on record: HepG2, 72 h. The class given is functional, cell-based.
Data set [11] addresses Serine/threonine-protein kinase B-raf (Homo sapiens, UniProt P15056). Put plainly: Inhibition of wild type BRAF (unknown origin).
Data set [12] has as its target Serine/threonine-protein kinase B-raf (Homo sapiens, UniProt P15056, V600E). As to the kind of experiment: Inhibition of BRAF V600E mutant (unknown origin).
Data set [13] has as its target T1, Vascular endothelial growth factor receptor 2. Put plainly: Inhibition of VEGFR2 (unknown origin).
In data set [14] the test system is MCF7. As to the kind of experiment: Antiproliferative activity against human MCF7 cells assessed as cell growth inhibition measured for 24 hrs by MTT assay. Format: functional, cell-based. The note with it: MCF7, 24 h.
Data set [15] has as its system HepG2. Put plainly: Antiproliferative activity against human HepG2 cells assessed as cell growth inhibition measured for 24 hrs by MTT assay. The class given is functional, cell-based. The settings on record: HepG2, 24 h.
Data set [16] deals with A549. As to the kind of experiment: Antiproliferative activity against human A549 cells assessed as cell growth inhibition measured for 24 hrs by MTT assay. The class given is functional, cell-based. The note with it: A549, 24 h.
Data set [17] has as its target Epidermal growth factor receptor (Homo sapiens, UniProt P00533). Put plainly: Inhibition of EGFR (unknown origin) by DiscoverX KINOMEscan assay.
Another data set concerns the target Histone deacetylase 1 (Homo sapiens, UniProt Q13547). As to the kind of experiment: Inhibition of HDAC1 (unknown origin).
For data set [18], the target named is T2, Protein deacetylase HDAC6 (Homo sapiens, UniProt Q9UBN7).
T2 sequence (Q9UBN7 whole entry): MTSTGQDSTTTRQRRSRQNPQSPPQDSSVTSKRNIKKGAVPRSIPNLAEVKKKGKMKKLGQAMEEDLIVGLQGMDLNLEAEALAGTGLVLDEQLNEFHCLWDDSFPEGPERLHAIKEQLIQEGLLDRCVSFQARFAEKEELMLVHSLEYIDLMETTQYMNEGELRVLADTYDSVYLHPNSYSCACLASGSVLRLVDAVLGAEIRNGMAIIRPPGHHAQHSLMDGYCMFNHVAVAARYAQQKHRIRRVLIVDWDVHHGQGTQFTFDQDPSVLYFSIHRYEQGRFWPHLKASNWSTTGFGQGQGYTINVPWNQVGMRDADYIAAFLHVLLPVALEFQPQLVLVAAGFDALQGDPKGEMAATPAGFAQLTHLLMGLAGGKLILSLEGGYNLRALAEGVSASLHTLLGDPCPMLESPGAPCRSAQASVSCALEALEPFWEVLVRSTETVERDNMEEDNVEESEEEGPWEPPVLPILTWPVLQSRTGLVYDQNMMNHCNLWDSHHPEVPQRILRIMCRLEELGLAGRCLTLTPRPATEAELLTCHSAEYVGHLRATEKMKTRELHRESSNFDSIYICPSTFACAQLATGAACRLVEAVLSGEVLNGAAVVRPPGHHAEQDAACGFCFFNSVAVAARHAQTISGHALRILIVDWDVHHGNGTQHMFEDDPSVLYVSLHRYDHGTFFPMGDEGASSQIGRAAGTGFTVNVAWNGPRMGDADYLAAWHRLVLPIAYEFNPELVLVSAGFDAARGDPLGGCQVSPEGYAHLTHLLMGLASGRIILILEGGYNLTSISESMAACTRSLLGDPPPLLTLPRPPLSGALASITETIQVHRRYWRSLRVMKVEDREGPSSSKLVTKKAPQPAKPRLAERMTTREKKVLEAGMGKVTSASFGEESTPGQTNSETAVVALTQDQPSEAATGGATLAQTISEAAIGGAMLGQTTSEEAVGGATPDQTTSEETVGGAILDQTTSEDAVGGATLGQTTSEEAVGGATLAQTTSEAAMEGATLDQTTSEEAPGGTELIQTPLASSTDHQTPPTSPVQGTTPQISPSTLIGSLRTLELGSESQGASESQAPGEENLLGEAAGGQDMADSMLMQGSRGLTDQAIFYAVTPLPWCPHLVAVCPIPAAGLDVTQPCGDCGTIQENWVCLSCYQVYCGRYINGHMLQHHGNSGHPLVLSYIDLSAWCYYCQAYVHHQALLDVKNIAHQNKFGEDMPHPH
As to the kind of experiment: Inhibition of HDAC6 (unknown origin).

Data set [19] concerns the target Vascular endothelial growth factor receptor 3 (Homo sapiens, UniProt P35916). Put plainly: Inhibition of VEGFR3 (unknown origin).
In data set [20] the target is Vascular endothelial growth factor receptor 1 (Homo sapiens, UniProt P17948). Put plainly: Inhibition of VEGFR1 (unknown origin).
Sequence of Vascular endothelial growth factor receptor 1 (P17948 whole entry): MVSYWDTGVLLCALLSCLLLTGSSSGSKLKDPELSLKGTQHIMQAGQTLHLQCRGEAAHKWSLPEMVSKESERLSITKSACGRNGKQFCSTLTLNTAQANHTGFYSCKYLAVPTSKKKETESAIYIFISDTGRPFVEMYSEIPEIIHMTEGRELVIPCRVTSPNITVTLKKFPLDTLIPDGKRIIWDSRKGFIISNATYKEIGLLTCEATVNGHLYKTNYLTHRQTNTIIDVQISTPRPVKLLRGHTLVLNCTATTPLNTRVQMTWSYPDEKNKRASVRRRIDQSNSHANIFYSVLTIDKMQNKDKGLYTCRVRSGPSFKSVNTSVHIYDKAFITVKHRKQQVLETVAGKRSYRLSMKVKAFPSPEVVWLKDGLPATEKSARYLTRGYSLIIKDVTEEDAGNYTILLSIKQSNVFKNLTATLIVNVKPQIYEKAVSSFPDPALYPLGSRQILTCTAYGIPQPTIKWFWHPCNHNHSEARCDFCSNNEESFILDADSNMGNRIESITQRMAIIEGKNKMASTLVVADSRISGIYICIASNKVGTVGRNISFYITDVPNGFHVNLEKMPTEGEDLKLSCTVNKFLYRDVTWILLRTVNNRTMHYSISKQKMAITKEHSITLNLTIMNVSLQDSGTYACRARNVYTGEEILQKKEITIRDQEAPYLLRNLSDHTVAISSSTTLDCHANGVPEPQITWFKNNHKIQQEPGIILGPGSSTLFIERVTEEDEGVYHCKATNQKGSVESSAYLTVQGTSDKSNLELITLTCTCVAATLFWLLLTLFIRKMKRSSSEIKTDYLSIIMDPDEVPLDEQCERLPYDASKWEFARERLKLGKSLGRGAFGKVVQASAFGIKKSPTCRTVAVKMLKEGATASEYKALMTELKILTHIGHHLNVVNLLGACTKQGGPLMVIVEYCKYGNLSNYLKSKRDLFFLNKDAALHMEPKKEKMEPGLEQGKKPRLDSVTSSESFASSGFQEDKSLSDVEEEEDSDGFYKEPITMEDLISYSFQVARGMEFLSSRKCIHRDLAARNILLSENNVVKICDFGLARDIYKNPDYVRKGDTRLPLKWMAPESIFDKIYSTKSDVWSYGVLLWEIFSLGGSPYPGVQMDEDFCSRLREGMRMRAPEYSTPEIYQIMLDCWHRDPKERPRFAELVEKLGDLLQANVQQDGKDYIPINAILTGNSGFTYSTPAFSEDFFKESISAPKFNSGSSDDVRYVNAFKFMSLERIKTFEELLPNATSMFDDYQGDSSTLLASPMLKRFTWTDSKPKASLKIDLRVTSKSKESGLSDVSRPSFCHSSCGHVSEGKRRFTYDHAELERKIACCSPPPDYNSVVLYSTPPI
The target of the next data set is Histone deacetylase 4 (Homo sapiens, UniProt P56524). Put plainly: Inhibition of HDAC4 (unknown origin).
A short description of data set [21]: Antiproliferative actiivty against human WI-38 cells assessed as reduction in cell viability by MTT assay. Format: toxicity, cell-based.
Data set [22] has as its target T1, Vascular endothelial growth factor receptor 2. Put plainly: Inhibition of human VEGFR2.
Data set [23] concerns MCF7. As to the kind of experiment: Antiproliferative actiivty against human MCF7 cells assessed as reduction in cell viability by MTT assay. Format: functional, cell-based.
For data set [24], the system named is HCT-116. Put plainly: Antiproliferative actiivty against human HCT-116 cells assessed as reduction in cell viability by MTT assay. Format: functional, cell-based.
Data set [25] relates to PC-3. Put plainly: Cytotoxicity against human PC-3 cells assessed as inhibition of cell growth incubated for 48 hrs by MTT assay. Format: functional, cell-based. The settings on record: PC-3, 48 h.
Data set [26] relates to HepG2. Put plainly: Cytotoxicity against human HepG2 cells assessed as inhibition of cell growth incubated for 48 hrs by MTT assay. Format: functional, cell-based. The note with it: HepG2, 48 h.
For data set [27], the system named is MCF7. As to the kind of experiment: Cytotoxicity against human MCF7 cells assessed as inhibition of cell growth incubated for 48 hrs by MTT assay. The settings on record: MCF7, 48 h. Format: functional, cell-based.
Data set [28] deals with HCT-116. Put plainly: Cytotoxicity against human HCT-116 cells assessed as inhibition of cell growth incubated for 48 hrs by MTT assay. The class given is functional, cell-based. The note with it: HCT-116, 48 h.

≈ marks a conversion by molar mass, not a printed value. Some results are limits rather than exact numbers.

By IC50 is commonly meant the concentration that inhibits the measured activity by half.

Sequence of Serine/threonine-protein kinase B-raf (Homo sapiens, UniProt P15056) (P15056 whole entry): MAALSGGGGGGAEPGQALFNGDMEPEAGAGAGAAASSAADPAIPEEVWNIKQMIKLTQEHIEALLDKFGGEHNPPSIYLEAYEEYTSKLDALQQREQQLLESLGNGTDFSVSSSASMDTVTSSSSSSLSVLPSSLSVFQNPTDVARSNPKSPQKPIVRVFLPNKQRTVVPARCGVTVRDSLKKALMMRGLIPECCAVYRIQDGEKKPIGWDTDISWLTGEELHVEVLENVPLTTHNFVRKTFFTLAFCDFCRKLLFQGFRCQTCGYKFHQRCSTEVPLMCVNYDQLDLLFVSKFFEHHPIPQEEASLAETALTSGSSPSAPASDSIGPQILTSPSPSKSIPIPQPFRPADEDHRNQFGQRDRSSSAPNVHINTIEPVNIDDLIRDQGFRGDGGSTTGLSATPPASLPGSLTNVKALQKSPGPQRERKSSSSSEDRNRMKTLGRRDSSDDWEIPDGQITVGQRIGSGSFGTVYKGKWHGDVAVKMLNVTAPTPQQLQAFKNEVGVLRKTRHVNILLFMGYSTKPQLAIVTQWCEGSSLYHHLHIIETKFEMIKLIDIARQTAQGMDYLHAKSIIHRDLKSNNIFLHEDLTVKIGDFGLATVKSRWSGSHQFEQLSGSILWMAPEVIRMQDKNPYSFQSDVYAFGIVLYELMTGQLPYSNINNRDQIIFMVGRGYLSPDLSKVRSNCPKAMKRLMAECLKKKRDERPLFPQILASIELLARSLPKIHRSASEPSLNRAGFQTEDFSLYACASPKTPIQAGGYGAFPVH
Sequence of Serine/threonine-protein kinase B-raf (Homo sapiens, UniProt P15056, V600E) (P15056 2-766 V600E limits assumed): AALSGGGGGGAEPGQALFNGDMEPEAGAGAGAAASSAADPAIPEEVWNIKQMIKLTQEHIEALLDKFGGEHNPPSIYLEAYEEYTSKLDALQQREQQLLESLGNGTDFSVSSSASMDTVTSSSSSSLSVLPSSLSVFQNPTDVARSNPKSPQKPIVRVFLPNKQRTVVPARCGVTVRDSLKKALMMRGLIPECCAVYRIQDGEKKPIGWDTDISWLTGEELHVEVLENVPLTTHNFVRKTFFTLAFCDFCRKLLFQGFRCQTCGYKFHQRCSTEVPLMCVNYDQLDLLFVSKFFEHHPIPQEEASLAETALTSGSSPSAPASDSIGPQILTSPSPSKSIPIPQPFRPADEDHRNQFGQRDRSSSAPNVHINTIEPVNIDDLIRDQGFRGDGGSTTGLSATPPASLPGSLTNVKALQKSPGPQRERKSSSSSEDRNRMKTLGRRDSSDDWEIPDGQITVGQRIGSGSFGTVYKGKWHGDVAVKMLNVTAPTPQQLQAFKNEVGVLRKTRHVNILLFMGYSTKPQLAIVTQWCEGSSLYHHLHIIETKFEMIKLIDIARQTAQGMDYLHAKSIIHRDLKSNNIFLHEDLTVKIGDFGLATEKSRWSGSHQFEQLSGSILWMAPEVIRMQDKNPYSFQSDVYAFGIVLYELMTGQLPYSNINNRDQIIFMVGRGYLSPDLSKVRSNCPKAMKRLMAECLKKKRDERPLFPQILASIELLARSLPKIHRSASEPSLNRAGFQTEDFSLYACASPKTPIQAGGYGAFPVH
Sequence of Histone deacetylase 1 (Q13547 whole entry): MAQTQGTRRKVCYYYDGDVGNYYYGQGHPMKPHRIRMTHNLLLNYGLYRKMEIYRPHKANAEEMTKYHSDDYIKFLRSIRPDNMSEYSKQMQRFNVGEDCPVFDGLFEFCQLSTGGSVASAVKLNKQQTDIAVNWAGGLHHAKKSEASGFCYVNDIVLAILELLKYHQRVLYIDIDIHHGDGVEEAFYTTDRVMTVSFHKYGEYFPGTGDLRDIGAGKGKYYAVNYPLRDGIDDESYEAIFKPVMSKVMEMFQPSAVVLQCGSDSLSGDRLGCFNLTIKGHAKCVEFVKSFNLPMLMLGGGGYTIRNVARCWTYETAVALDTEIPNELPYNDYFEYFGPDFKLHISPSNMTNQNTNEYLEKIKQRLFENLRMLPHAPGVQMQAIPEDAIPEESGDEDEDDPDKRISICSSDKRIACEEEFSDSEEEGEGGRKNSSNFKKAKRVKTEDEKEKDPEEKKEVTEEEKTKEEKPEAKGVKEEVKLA

With `CCOC(=O)c1sc(N2N=C(c3ccc(Cl)cc3Cl)CC2c2ccc(OC)cc2)nc1C` (stereo unspecified), the IC50 amounted to 4.76 µM in the data set on NCI-H441, 6.16 µM in the data set with NCI-H1975, 4.22 µM with A549 [1] and 5.68 µM in the data set on NCI-H1650.

As for `COc1cc(-c2nc(SCC(=O)Nc3ccc(C(C)=O)cc3)[nH]c(=O)c2C#N)cc(OC)c1OC`, the IC50 in [2] was determined as 199 µM.

As for `COc1ccc(/C=N/n2c(-c3cc4ccccc4[nH]3)n[nH]c2=S)cc1`, the IC50 in the data set on A498 is 20.6 µM; with CAKI-1, 1.63 µM.

For the compound `CCn1c(SCC(=O)NNC(=O)c2ccccc2)nc2ccc([N+](=O)[O-])cc2c1=O`, the half-inhibitory concentration (IC50) came to 17.2 µg/mL (≈ 40.3 µM) in the data set on HepG2 [3], 30.8 µg/mL (≈ 72.2 µM) with MCF7 [4] and 26.1 µg/mL (≈ 61.1 µM) with PC-3 [5].

Regarding `CCOC(=O)/C(=N\Nc1ccc(S(=O)(=O)Nc2nc(C)cc(C)n2)cc1)C(=O)NNc1ccccc1`, the IC50 in [6] stood at 0.15 µM; in the data set with MCF7 [7] it was 13.8 µM; in the data set on HCT-116 [9], 10.1 µM; in the data set with HepG2 [10] it was 8.97 µM. The IC50 at 24 h in data set [8] worked out at 59.8 µM.

On to `O=C(CSc1nc2sc3c(c2c(=O)n1-c1ccc(Cl)cc1)CCCC3)NNC(=O)Nc1cccc(C(F)(F)F)c1`, for which the IC50 was 0.071 µM in data set [11], 0.089 µM in [12] and 0.111 µM in data set [13].

With `C/C(=N\N1C(=O)CNC1=S)c1ccc(O)cc1O`, the IC50 is 2.26 µM in the data set on MCF7 [14], 5.18 µM in the data set with HepG2 [15], 3.14 µM in the data set with A549 [16] and 23.2 µM in [17].

For `COc1ccc(C2CC(c3ccc(Cl)cc3Cl)=NN2c2nc(C)c(C(=O)Nc3ccccc3)s2)cc1OC` (stereo unspecified), the IC50 in the data set on NCI-H441 worked out at 3.8 µM; in the data set with NCI-H1975 it was 4.41 µM; in the data set with A549 [1], 2.92 µM; in the data set on NCI-H1650, 3.54 µM.

As to `Cc1c2ccc(Nc3ccnc(Nc4ccc(OCCCCCCC(=O)NO)cc4)n3)cc2nn1C`, the IC50 against Histone deacetylase 1 is 0.24 µM; in data set [18] it was 0.063 µM; in data set [19], 0.066 µM; in data set [20], 0.041 µM; in data set [13], 0.032 µM; on Histone deacetylase 4 it was greater than 9.17 µM.

As for `O=C(c1ccccc1)n1cc(-c2nc3cc(Cl)ccc3[nH]c2=O)c(=O)[nH]1`, the IC50 in data set [21] came to 99.2 µM; in data set [22], 0.144 µM; in the data set on MCF7 [23] it was 3.57 µM; with HCT-116 [24] it was 4.28 µM.

With `N=c1cc(N)nc2sc(NC(=O)c3cccs3)nn12`, the IC50 in the data set with PC-3 [25] stood at 7.76 µM; in the data set with HepG2 [26] it was 4.22 µM; with MCF7 [27] it was 8.45 µM; in the data set on HCT-116 [28] it was 33.1 µM; in [13] it was 8.2 µM.

On to `COc1ccc(/C=N/n2c(SCC(=O)c3ccc(Cl)cc3)nnc2-c2cc3ccccc3[nH]2)cc1`, for which the IC50 with A498 was found to be 2.2 µM; in the data set with CAKI-1, 0.89 µM.

In the case of `O=C(CSc1nc2sc3c(c2c(=O)n1-c1ccc(Cl)cc1)CCCC3)NNC(=O)Nc1ccc(Cl)c(C(F)(F)F)c1`, the values for the 50% inhibitory concentration (IC50) in data set [11], in [12] and in data set [13] were 0.05 µM, 0.063 µM and 0.049 µM, respectively.

`Cc1cc(NS(=O)(=O)c2ccc(NN=C3C(=O)NNC3=O)cc2)no1`: the IC50 in data set [6] stood at 0.15 µM; in the data set with MCF7 [7] it was 14.3 µM; in the data set with HCT-116 [9], 7.49 µM; in the data set with HepG2 [10], 8.65 µM. In [8], the IC50 at 24 h turned out to be 36.3 µM.

The values above are taken from ChEMBL document CHEMBL5500383, “Recent advances and future directions on small molecule VEGFR inhibitors in oncological conditions” (Eur J Med Chem, 2024).
